These results are taken from patent US20160061841A1, “NRF2-BASED CANCER TREATMENT AND DETECTION METHODS AND USES” (CanBas Co., Ltd., priority 2014, published 2016).

The subject of one experiment is NCI-H1155. As to the kind of experiment: CDDP-enhancing activity of CBP501, cell cycle distribution by flow-cytometry. The conditions noted are these: 1 h co-exposure with CDDP. Type of experiment: cell-based, Human. Here is the method: (§1) Cell culture and reagents. Human NSCLC cell lines were cultured in a variety of media, each supplemented with 10% fetal bovine serum (Invitrogen, San Diego, CA) at 37° C. with 5% CO2/air. The media used was RPMI1640 (Sigma-Aldrich, St. Louis, Mo.) for NCI-H1755, NCI-H2030, NCI-H1437, NCI-H2122, NCI-H2172, NCI-H2228, NCI-H1563, NCI-H1944, NCI-H1993, NCI-H1734, NCI-H1568, NCI-H2444, NCI-H2291, NCI-H2347, NCI-H1838, NCI-H1299, HCC827, NCI-H1975, NCI-H1155, NCI-H522 and NCI-H1703; RPMI1640 supplemented with 2mM L-glutamine (Invitrogen) for NCI-H727; RPMI1640 supplemented with 4.5 g/L D-glucose (Sigma-Aldrich), 10 mM HEPES (Sigma-Aldrich) and 1 mM sodium pyruvate (Sigma-Aldrich) for NCI-H358, NCI-H520, NCI-H23, NCI-H647 and NCI-H838; Ham's F12K (Sigma-Aldrich) for A549. CDDP was purchased from Sigma-Aldrich. Sulforaphane (SFN) was purchased from Sigma-Aldrich. All NSCLC cell lines were purchased from ATCC and STR analysis had been performed by ATCC to authenticate the identity of each cell line. All cell lines were used within three months after thawing.
(§2) Cell cycle analysis. Cells were plated in 24-well plates and incubated for 24 hours. The cells were treated with or without CDDP plus or minus CBP501 at the indicated concentration for the indicated times. The cells were harvested and stained with Krishan's solution (0.1% sodium citrate, 50 μg/ml propidium iodide, 20 μg/ml RNase A, 0.5% NP-40). Stained cells were analyzed by FACSCalibur (Becton Dickinson, Franklin Lakes, N.J.) using CELLQuest software (Becton Dickinson).
(§3) Here, the change in the cell cycle distribution, as indicated by flow-cytometry, was used to estimate the sensitivity of NSCLC cell lines to CBP501-enhanced cytotoxicity to CDDP. Such changes were monitored in cells treated with CDDP in the presence or absence of CBP501. The utility of this analysis for assessing the effectiveness of anti-cancer therapy is based on the absence of functioning G1/S checkpoint regulation in the cell cycle of many types of cancer cells (14). Lack of a functional G1/S checkpoint leads to an accumulation of cancer cells in G2/M phase upon their exposure to DNA-damaging anticancer agents (14, 15).
(§4) To assess the CDDP-enhancing activity of CBP501, one can examine either of two dose-response curves in which the X-axis indicates the dose of CDDP and Y-axis indicates either the number of cells in subG1 or in G2/M. The transition and peak in either dose-response curve will shift to the left in the presence of CBP501 for CBP501-sensitive cells, indicating the enhanced ability of CDDP to change the cell cycle distribution. […] Using this criterion based on CBP501's ability to shift the CDDP-induced subG1 or G2/M dose-response curve, twelve NSCLC cell lines were classified as being either, CBP501-sensitive or CBP501-insensitive. Cell lines that shifted the curve two fold or more were classified as CBP501 sensitive cells and those that shifted the curve less than two fold were classified as CBP501 insensitive (Table 1). Classification of CBP501 sensitivity in NSCLC cell lines.
(§5) Although the expression of Nrf2 or its several downstream transcription targets may possibly predict resistance to CBP501, the general reliability of these predictive markers for CBP501-sensitivity remained to be established. The combination effect of CBP501 and CDDP in sixteen additional NSCLC cell lines, classifying each as CBP501 sensitive or insensitive by the prior criteria was analyzed (Table 2). Classification of CBP501 sensitivity in additional NSCLC cell lines.

A further experiment deals with NCI-H1734. Described as above. In kind it is cell-based, Human. The note with it: 1 h co-exposure with CDDP. Here is the method:
as §1, §2, §3, §4, §5

A further experiment concerns NCI-H1755. The experiment is described as above. The conditions noted are these: 1 h co-exposure with CDDP. Type of experiment: cell-based, Human. Here is the method:
as §1, §2, §3, §4, §5

The subject of another experiment is NCI-H1975. Described as above. Type of experiment: cell-based, Human. The note with it: 1 h co-exposure with CDDP. Here is the method:
as §1, §2, §3, §4, §5

A further experiment deals with NCI-H23. Described as above. The conditions noted are these: 1 h co-exposure with CDDP, shift of subG1 or G2/M dose-response curve. Type of experiment: cell-based, Human. Here is the method: as §1, §2, §3, §4, §5
The subject of another experiment is NCI-H520. The experiment is described as above. The note with it: 1 h co-exposure with CDDP. Type of experiment: cell-based, Human. Here is the method:
as §1, §2, §3, §4, §5

The test system of the next experiment is NCI-H647. The experiment is described as above. In kind it is cell-based, Human. The note with it: 1 h co-exposure with CDDP, shift of subG1 or G2/M dose-response curve. On the procedure:
as §1, §2, §3, §4, §5

A further experiment concerns NCI-H727. Described as above. Type of experiment: cell-based, Human. The note with it: 1 h co-exposure with CDDP. On the procedure:
as §1, §2, §3, §4, §5

In experiment [1] the test system is H1437 Control (Ctrl)-shRNA and Nrf2-shRNA sub-lines. Put plainly: Cell cycle distribution after CDDP with or without CBP501 in H1437 Ctrl-shRNA and Nrf2-shRNA sub-lines. The conditions noted are these: one hour treatment with CDDP with or without CBP501. Type of experiment: cell-based, Human. On the procedure:
Cell cycle distribution changes are detected by Flow-cytometry (n=4). The graphs at the left are from the sub-line established by introducing Control (Ctrl)-shRNA into the H1437. The graphs at the right are from the sub-line established by indtroducing Nrf2-shRNA into H1437. Upper graphs indicate the subGl population. Lower graphs indicate the G2-M population. An asterisk indicates statistical significance (TTEST; p<0.001). N.S.=not significant (p>0.01).
as §2
Lentivirus infection. […] Lentivirus infection was performed according to manufacturer's instructions.
The effect of Nrf2 knock-down in the CBP501 insensitive cell line H1437 was investigated.

Another experiment concerns 14-3-3 protein. The note with it: cited from earlier work.
For experiment [2], the system named is cancer cells. The note with it: cited from earlier work.
The target of the next experiment is calmodulin (Homo sapiens, UniProt P0DP23). The conditions noted are these: cited from earlier work.
Experiment [3] deals with cancer cells. The conditions noted are these: shorter exposure and lower doses of CBP501 than required for G2 checkpoint abrogation; cited from earlier work.
[4] abbreviates: shift of subG1 or G2/M dose-response curve.

“Also recorded” adds a separate entry of the source. Where no end group is shown, it is not given here. [ ]: non-standard residue; d: D form. dPhe(F5) = N[C@H](Cc1c(F)c(F)c(F)c(F)c1F)C(=O)O; dBpa = N[C@H](Cc1ccc(C(=O)c2ccccc2)cc1)C(=O)O; dCha = N[C@H](CC1CCCCC1)C(=O)O

Take “(d-Bpa)(d-Ser)(d-Trp)(d-Ser)(d-Phe-2,3,4,5,6-F)(d-Cha)(d-Arg)(d-Arg)(d-Arg)(d-Gln)(d-Arg)(d-Arg) ([dBpa][dS][dW][dS][dPhe(F5)][dCha][dR][dR][dR][dQ][dR][dR]) [CBP501, anti-cancer drug candidate; calmodulin modulation and G2 checkpoint abrogation]”: the “Definition of CBP501 sensitivity” value is “Insensitive (those that shifted the curve less than two fold were classified as CBP501 insensitive)” in the experiment with NCI-H1155; “Sensitive (Cell lines that shifted the curve two fold or more were classified as CBP501 sensitive cells)” in the experiment on NCI-H1734; “Insensitive (those that shifted the curve less than two fold were classified as CBP501 insensitive)” with NCI-H1755; “Sensitive (Cell lines that shifted the curve two fold or more were classified as CBP501 sensitive cells)” in the experiment with NCI-H1975; “Sensitive (Cell lines that shifted the curve two fold or more were classified as CBP501 sensitive cells)” in the experiment with NCI-H520; “Insensitive (those that shifted the curve less than two fold were classified as CBP501 insensitive)” with NCI-H727. The “Folds increase of CDDP effect by CBP501” value amounted to 1.5 fold in the experiment with NCI-H1155 (setting [4]); 2 fold in the experiment with NCI-H1734 (setting [4]); 1 fold in the experiment on NCI-H1755 (setting [4]); 2 fold in the experiment on NCI-H1975 (setting [4]); 4 fold in the experiment with NCI-H23; 2 fold with NCI-H520 (setting [4]). The “Folds increase of CDDP effect by CBP501” value came out at 1.5 fold in the experiment with NCI-H647 and 1 fold with NCI-H727 (setting [4]). Also, the “Effect of CBP501 on CDDP-induced changes in cell cycle distribution (subG1, G2-M)” value was “increase the effects of CDDP on changes in the cell cycle distribution of subG1 and G2-M; also recorded: increases CBP501 sensitivity” in experiment [1] (H1437 Nrf2 knock-down); “no difference in CDDP activity with or without CBP501” in [1] (H1437 control shRNA). The “Binding to 14-3-3 protein” value in the experiment on 14-3-3 protein is “binds directly to 14-3-3 protein”. For the same substance, the “Phosphorylation of CDC25C at Ser216” value with cancer cells [2] is recorded as “attenuates phosphorylation of CDC25C at Ser216”. Further, the “Accumulation of cancer cells at G2/M” value in the experiment on cancer cells [2] (lengthy combined exposure with CDDP or bleomycin (BLM)) is “reduces the accumulation of cancer cells at G2/M”. Moreover, the Interaction with calmodulin entry in the experiment with calmodulin was “direct interaction”. Also, in the experiment on cancer cells [3], the “Uptake of CDDP into cancer cells” value is given as “increased uptake of CDDP into cancer cells”.
